Reference: the NIST ThermoML archive (doi:10.1016/j.jct.2003.11.008)

What was measured:
[1] = excess molar enthalpy (molar enthalpy of mixing); xn = mol fraction of the nth substance listed; conditions: 318.15 K, 101.3 kPa, Liquid
[2] = xn = mol fraction of the nth substance listed; conditions: 318.15 K, 101.3 kPa, Liquid

CCCCCCCCCCCCCCC [pentadecane] + CCCOC(C)=O
Conditions	excess molar enthalpy [kcal/mol]	excess molar volume [m3/mol]
[1], x2 = 0.1056	0.137	–
[1], x2 = 0.1903	0.23	–
[1], x2 = 0.2687	0.303	–
[1], x2 = 0.3385	0.354	–
[1], x2 = 0.4042	0.389	–
[1], x2 = 0.4596	0.409	–
[1], x2 = 0.5101	0.421	–
[1], x2 = 0.5521	0.421	–
[1], x2 = 0.5935	0.416	–
[1], x2 = 0.634	0.405	–
[1], x2 = 0.674	0.389	–
[1], x2 = 0.715	0.369	–
[1], x2 = 0.7583	0.339	–
[1], x2 = 0.8027	0.301	–
[1], x2 = 0.8473	0.254	–
[1], x2 = 0.8921	0.193	–
[1], x2 = 0.9369	0.126	–
[1], x2 = 0.9732	0.0589	–
[2], x2 = 0.0878	–	3.42e-07
[2], x2 = 0.1416	–	5.35e-07
[2], x2 = 0.2112	–	7.4e-07
[2], x2 = 0.3035	–	9.75e-07
[2], x2 = 0.3749	–	1.102e-06
[2], x2 = 0.4446	–	1.188e-06
[2], x2 = 0.5048	–	1.254e-06
[2], x2 = 0.5631	–	1.259e-06
[2], x2 = 0.6193	–	1.238e-06
[2], x2 = 0.6657	–	1.213e-06
[2], x2 = 0.742	–	1.093e-06
[2], x2 = 0.8073	–	9.36e-07
[2], x2 = 0.8769	–	6.9e-07
[2], x2 = 0.9297	–	4.51e-07
[2], x2 = 0.9673	–	2.26e-07

CCCCCCCCCCCCCCC [pentadecane] + CCOC(C)=O
Conditions	excess molar enthalpy [kcal/mol]	excess molar volume [m3/mol]
[1], x2 = 0.0901	0.134	–
[1], x2 = 0.1777	0.244	–
[1], x2 = 0.2582	0.339	–
[1], x2 = 0.3339	0.41	–
[1], x2 = 0.397	0.456	–
[1], x2 = 0.4609	0.489	–
[1], x2 = 0.5093	0.505	–
[1], x2 = 0.5557	0.511	–
[1], x2 = 0.6033	0.509	–
[1], x2 = 0.6563	0.495	–
[1], x2 = 0.6935	0.48	–
[1], x2 = 0.7292	0.457	–
[1], x2 = 0.7706	0.424	–
[1], x2 = 0.813	0.384	–
[1], x2 = 0.8538	0.332	–
[1], x2 = 0.8958	0.273	–
[1], x2 = 0.9283	0.21	–
[1], x2 = 0.9676	0.115	–
[2], x2 = 0.0932	–	4.44e-07
[2], x2 = 0.1272	–	5.87e-07
[2], x2 = 0.2314	–	9.83e-07
[2], x2 = 0.3237	–	1.237e-06
[2], x2 = 0.4048	–	1.412e-06
[2], x2 = 0.465	–	1.483e-06
[2], x2 = 0.5427	–	1.54e-06
[2], x2 = 0.5987	–	1.536e-06
[2], x2 = 0.6373	–	1.512e-06
[2], x2 = 0.6957	–	1.432e-06
[2], x2 = 0.7643	–	1.293e-06
[2], x2 = 0.8273	–	1.104e-06
[2], x2 = 0.8926	–	8.05e-07
[2], x2 = 0.9375	–	5.48e-07
[2], x2 = 0.9714	–	2.73e-07

CCCCCCCCCCCCCCC [pentadecane] + COC(C)=O
Conditions	excess molar enthalpy [kcal/mol]	excess molar volume [m3/mol]
[1], x2 = 0.091	0.14	–
[1], x2 = 0.1824	0.272	–
[1], x2 = 0.2689	0.391	–
[1], x2 = 0.3572	0.488	–
[1], x2 = 0.4282	0.549	–
[1], x2 = 0.4946	0.586	–
[1], x2 = 0.5472	0.6	–
[1], x2 = 0.5908	0.601	–
[1], x2 = 0.6306	0.594	–
[1], x2 = 0.6559	0.584	–
[1], x2 = 0.6897	0.567	–
[1], x2 = 0.7229	0.544	–
[1], x2 = 0.7578	0.52	–
[1], x2 = 0.7947	0.484	–
[1], x2 = 0.8299	0.438	–
[1], x2 = 0.8675	0.385	–
[1], x2 = 0.905	0.316	–
[1], x2 = 0.94	0.238	–
[1], x2 = 0.9723	0.148	–
[2], x2 = 0.1527	–	8.72e-07
[2], x2 = 0.2889	–	1.467e-06
[2], x2 = 0.3786	–	1.739e-06
[2], x2 = 0.4627	–	1.898e-06
[2], x2 = 0.5368	–	1.979e-06
[2], x2 = 0.5993	–	2.002e-06
[2], x2 = 0.6511	–	1.945e-06
[2], x2 = 0.6955	–	1.858e-06
[2], x2 = 0.7356	–	1.746e-06
[2], x2 = 0.777	–	1.644e-06
[2], x2 = 0.8099	–	1.512e-06
[2], x2 = 0.8412	–	1.386e-06
[2], x2 = 0.8595	–	1.259e-06
[2], x2 = 0.9126	–	9.19e-07
[2], x2 = 0.9511	–	5.84e-07
[2], x2 = 0.9777	–	2.73e-07

CCCCCOC(C)=O [pentyl ethanoate] + CCCCCCC
Conditions	excess molar enthalpy [kcal/mol]	excess molar volume [m3/mol]
[1], x1 = 0.0544	0.0566	–
[1], x1 = 0.1187	0.104	–
[1], x1 = 0.1801	0.141	–
[1], x1 = 0.2428	0.169	–
[1], x1 = 0.3049	0.192	–
[1], x1 = 0.3645	0.205	–
[1], x1 = 0.4174	0.211	–
[1], x1 = 0.468	0.212	–
[1], x1 = 0.472	0.212	–
[1], x1 = 0.5161	0.209	–
[1], x1 = 0.5646	0.203	–
[1], x1 = 0.6163	0.191	–
[1], x1 = 0.6696	0.176	–
[1], x1 = 0.7277	0.155	–
[1], x1 = 0.7889	0.128	–
[1], x1 = 0.8473	0.0966	–
[1], x1 = 0.9078	0.0615	–
[1], x1 = 0.9594	0.0278	–
[2], x1 = 0.0546	–	1.29e-07
[2], x1 = 0.1048	–	2.14e-07
[2], x1 = 0.1515	–	2.65e-07
[2], x1 = 0.2014	–	3.07e-07
[2], x1 = 0.2488	–	3.45e-07
[2], x1 = 0.3009	–	3.81e-07
[2], x1 = 0.3474	–	3.99e-07
[2], x1 = 0.3999	–	4.11e-07
[2], x1 = 0.4426	–	4.09e-07
[2], x1 = 0.4977	–	3.97e-07
[2], x1 = 0.5503	–	3.72e-07
[2], x1 = 0.5881	–	3.55e-07
[2], x1 = 0.636	–	3.23e-07
[2], x1 = 0.7502	–	2.51e-07
[2], x1 = 0.8467	–	1.71e-07
[2], x1 = 0.9288	–	9.4e-08

CCCCCOC(C)=O [pentyl ethanoate] + CCCCCCCCC
Conditions	excess molar enthalpy [kcal/mol]	excess molar volume [m3/mol]
[1], x1 = 0.0676	0.0718	–
[1], x1 = 0.1364	0.126	–
[1], x1 = 0.2097	0.173	–
[1], x1 = 0.2818	0.207	–
[1], x1 = 0.3491	0.228	–
[1], x1 = 0.4124	0.239	–
[1], x1 = 0.4692	0.243	–
[1], x1 = 0.5191	0.239	–
[1], x1 = 0.5639	0.232	–
[1], x1 = 0.621	0.216	–
[1], x1 = 0.6739	0.202	–
[1], x1 = 0.7288	0.181	–
[1], x1 = 0.7858	0.154	–
[1], x1 = 0.8432	0.12	–
[1], x1 = 0.8986	0.0826	–
[1], x1 = 0.9529	0.0421	–
[2], x1 = 0.0672	–	1.52e-07
[2], x1 = 0.1243	–	2.83e-07
[2], x1 = 0.1813	–	4.14e-07
[2], x1 = 0.2354	–	5.13e-07
[2], x1 = 0.3037	–	5.97e-07
[2], x1 = 0.3405	–	6.3e-07
[2], x1 = 0.3995	–	6.66e-07
[2], x1 = 0.4479	–	6.75e-07
[2], x1 = 0.5035	–	6.77e-07
[2], x1 = 0.5492	–	6.64e-07
[2], x1 = 0.6071	–	6.24e-07
[2], x1 = 0.6461	–	5.91e-07
[2], x1 = 0.685	–	5.48e-07
[2], x1 = 0.7852	–	4.49e-07
[2], x1 = 0.8739	–	3.42e-07
[2], x1 = 0.9451	–	2.1e-07
